Measurements taken from ChEMBL document CHEMBL4359833, “Philanthotoxin Analogues That Selectively Inhibit Ganglionic Nicotinic Acetylcholine Receptors with Exceptional Potency” (J Med Chem, 2019).

Tests used:
Assay type in all cases: cell-based
[1] = target: T1, Neuronal acetylcholine receptor; alpha3/beta4 (Homo sapiens, UniProt P30926+P32297); test: Antagonist activity at alpha3beta4 nAChR (unknown origin) expressed in Xenopus laevis oocytes assessed as inhibition of Ach-induced channel activation at -100 mV holding potential treated for 1 min by two electrode voltage-clamp assay
[2] = target: T2, Neuronal acetylcholine receptor; alpha4/beta2 (Homo sapiens, UniProt P17787+P43681); test: Antagonist activity at alpha4beta2 nAChR (unknown origin) expressed in Xenopus laevis oocytes assessed as inhibition of Ach-induced channel activation at -100 mV holding potential treated for 1 min by two electrode voltage-clamp assay
[3] = target: T1, Neuronal acetylcholine receptor; alpha3/beta4; test: Antagonist activity at alpha3beta4 nAChR (unknown origin) expressed in Xenopus laevis oocytes assessed as inhibition of Ach-induced channel activation at -100 mV holding potential treated for 1 min by two electrode voltage-clamp assay relative to PhTX-343 IC50
[4] = target: T2, Neuronal acetylcholine receptor; alpha4/beta2; test: Antagonist activity at alpha4beta2 nAChR (unknown origin) expressed in Xenopus laevis oocytes assessed as inhibition of Ach-induced channel activation at -100 mV holding potential treated for 1 min by two electrode voltage-clamp assay relative to PhTX-343 IC50
[5] = organism: Homo sapiens; test: Selectivity ratio of IC50 for alpha4beta2 nAChR (unknown origin) expressed in Xenopus laevis oocytes to IC50 for alpha3beta4 nAChR (unknown origin) expressed in Xenopus laevis oocytes

T1 sequence (P30926 whole entry): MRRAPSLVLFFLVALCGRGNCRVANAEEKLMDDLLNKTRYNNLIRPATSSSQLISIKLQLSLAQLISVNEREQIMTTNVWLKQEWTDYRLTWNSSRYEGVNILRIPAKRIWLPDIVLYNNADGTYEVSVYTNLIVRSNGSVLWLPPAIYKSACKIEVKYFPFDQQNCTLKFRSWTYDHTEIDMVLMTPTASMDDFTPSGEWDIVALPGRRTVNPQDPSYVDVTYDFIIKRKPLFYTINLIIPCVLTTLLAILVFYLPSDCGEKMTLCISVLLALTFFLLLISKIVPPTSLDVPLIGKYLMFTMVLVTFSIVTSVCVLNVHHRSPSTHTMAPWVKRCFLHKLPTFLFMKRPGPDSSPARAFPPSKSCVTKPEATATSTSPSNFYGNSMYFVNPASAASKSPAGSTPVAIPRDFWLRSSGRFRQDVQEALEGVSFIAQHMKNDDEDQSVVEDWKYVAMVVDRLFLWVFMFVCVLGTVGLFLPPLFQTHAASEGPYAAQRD
T1 sequence (P32297 whole entry): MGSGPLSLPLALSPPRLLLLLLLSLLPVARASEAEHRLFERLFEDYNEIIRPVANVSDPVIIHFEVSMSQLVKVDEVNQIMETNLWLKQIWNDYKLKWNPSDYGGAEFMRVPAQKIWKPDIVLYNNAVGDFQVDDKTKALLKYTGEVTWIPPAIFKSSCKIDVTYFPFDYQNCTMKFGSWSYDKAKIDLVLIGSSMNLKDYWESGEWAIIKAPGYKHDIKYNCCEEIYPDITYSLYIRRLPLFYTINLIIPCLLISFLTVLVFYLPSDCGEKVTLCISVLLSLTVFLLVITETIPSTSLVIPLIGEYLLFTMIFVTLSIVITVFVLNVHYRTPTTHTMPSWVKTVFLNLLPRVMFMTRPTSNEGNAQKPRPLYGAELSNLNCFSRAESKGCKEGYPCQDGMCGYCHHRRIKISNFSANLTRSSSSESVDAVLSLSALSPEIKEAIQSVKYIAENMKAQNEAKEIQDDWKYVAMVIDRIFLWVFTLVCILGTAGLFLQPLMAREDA
T2 sequence (P17787 whole entry): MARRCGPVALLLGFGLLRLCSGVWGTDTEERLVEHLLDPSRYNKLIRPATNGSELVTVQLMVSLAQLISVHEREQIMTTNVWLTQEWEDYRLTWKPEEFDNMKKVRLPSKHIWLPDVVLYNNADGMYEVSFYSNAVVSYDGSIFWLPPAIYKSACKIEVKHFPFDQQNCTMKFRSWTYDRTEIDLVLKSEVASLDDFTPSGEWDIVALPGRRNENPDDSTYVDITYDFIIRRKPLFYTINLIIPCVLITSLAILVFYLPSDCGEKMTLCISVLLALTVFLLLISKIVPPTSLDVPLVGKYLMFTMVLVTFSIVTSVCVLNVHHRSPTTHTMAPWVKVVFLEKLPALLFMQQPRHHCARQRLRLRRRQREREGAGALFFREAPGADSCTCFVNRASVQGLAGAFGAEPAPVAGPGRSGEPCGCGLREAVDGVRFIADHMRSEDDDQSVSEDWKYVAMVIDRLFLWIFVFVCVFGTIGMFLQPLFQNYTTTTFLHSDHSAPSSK
T2 sequence (P43681 whole entry): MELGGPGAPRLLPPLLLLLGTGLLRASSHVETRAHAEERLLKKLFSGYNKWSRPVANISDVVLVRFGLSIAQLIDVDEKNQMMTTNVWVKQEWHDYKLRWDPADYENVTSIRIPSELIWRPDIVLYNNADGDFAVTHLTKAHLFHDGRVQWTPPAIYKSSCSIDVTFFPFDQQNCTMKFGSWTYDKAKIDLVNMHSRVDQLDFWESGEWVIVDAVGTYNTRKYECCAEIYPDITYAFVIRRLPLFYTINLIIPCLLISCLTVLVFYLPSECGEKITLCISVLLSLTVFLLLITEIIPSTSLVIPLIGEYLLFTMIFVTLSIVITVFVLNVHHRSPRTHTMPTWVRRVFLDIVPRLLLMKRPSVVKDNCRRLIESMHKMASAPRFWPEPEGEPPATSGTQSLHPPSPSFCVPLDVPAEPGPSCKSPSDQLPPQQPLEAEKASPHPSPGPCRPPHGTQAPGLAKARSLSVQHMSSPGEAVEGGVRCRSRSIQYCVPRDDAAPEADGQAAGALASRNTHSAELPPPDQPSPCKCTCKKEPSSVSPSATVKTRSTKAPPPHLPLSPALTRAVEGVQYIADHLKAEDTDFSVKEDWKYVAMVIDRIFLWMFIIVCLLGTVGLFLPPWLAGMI

NCCCNCCCCNCCCNC(=O)[C@H](CC1CCCCC1)NC(=O)CC1CC2CCC1C2 (stereo partly drawn)
IC50 [1]: 0.95 nM | IC50 [2]: 25.6 nM | Ratio IC50 [3]: 8.1 | Ratio IC50 [4]: 3.1 | Ratio IC50 [5]: 26.9

CCCC(=O)N[C@@H](CCc1ccccc1)C(=O)NCCCNCCCCNCCCN
IC50 [1]: 1.74 nM | IC50 [2]: 20.8 nM | Ratio IC50 [3]: 4.4 | Ratio IC50 [4]: 3.9 | Ratio IC50 [5]: 12

CCCC(=O)N[C@@H](Cc1ccc(O)cc1)C(=O)NCCCNC[C@@H]1C[C@H]1CNCCCN
IC50 [1]: 0.92 nM | IC50 [2]: 44.3 nM | Ratio IC50 [3]: 8.3 | Ratio IC50 [4]: 1.8 | Ratio IC50 [5]: 48.2

CCCC(=O)N[C@@H](Cc1ccc(O)cc1)C(=O)NCCCNC[C@H]1C[C@H]1CNCCCN
IC50 [1]: 1.44 nM | IC50 [2]: 47.4 nM | Ratio IC50 [3]: 5.3 | Ratio IC50 [4]: 1.7 | Ratio IC50 [5]: 32.9

NCCCNCCCCNCCCNC(=O)[C@H](CC1CCCCC1)NC(=O)C1CCCC1
IC50 [1]: 0.65 nM | IC50 [2]: 5.43 nM | Ratio IC50 [3]: 11.8 | Ratio IC50 [4]: 14.8 | Ratio IC50 [5]: 8.4

NCCCNCCCCNCCCNC(=O)[C@H](CC1CCCCC1)NC(=O)C1CCCCC1
IC50 [1]: 2.19 nM | IC50 [2]: 31.4 nM | Ratio IC50 [3]: 3.5 | Ratio IC50 [4]: 2.6 | Ratio IC50 [5]: 14.3

NCCCNCCCCNCCCNC(=O)[C@H](CC1CCCCC1)NC(=O)C1CCC1
IC50 [1]: 1.07 nM | IC50 [2]: 20.8 nM | Ratio IC50 [3]: 7.1 | Ratio IC50 [4]: 3.9 | Ratio IC50 [5]: 19.4

NCCCNCCCCNCCCNC(=O)[C@H](CC1CCCCC1)NC(=O)C1CCCCCC1
IC50 [1]: 0.55 nM | IC50 [2]: 28.2 nM | Ratio IC50 [3]: 13.9 | Ratio IC50 [4]: 2.8 | Ratio IC50 [5]: 51.3

CCCC(=O)N[C@@H](CC1CCCCC1)C(=O)NCCCNCCCCNCCCN
IC50 [1]: 2.62 nM | IC50 [2]: 2.58 nM | Ratio IC50 [3]: 2.9 | Ratio IC50 [4]: 31.1 | Ratio IC50 [5]: 1

NCCCNCCCCNCCCNC(=O)[C@H](Cc1ccc(O)cc1)NC(=O)C1CCCC1
IC50 [1]: 0.57 nM | IC50 [2]: 22.5 nM | Ratio IC50 [3]: 13.4 | Ratio IC50 [4]: 3.6 | Ratio IC50 [5]: 39.5

NCCCNCCCCNCCCNC(=O)[C@H](CC1CCCCC1)NC(=O)Cc1cccc2ccccc12
IC50 [1]: 0.16 nM | IC50 [2]: 14.6 nM | Ratio IC50 [3]: 47.8 | Ratio IC50 [4]: 5.5 | Ratio IC50 [5]: 91.3

CCCC(=O)N[C@@H](Cc1ccccc1)C(=O)NCCCNCCCCNCCCN
IC50 [1]: 0.93 nM | IC50 [2]: 27.8 nM | Ratio IC50 [3]: 8.2 | Ratio IC50 [4]: 2.9 | Ratio IC50 [5]: 29.9

NCCCNCCCCNCCCNC(=O)[C@H](CC1CCCCC1)NC(=O)C1CC1
IC50 [1]: 2.63 nM | IC50 [2]: 112 nM | Ratio IC50 [3]: 2.9 | Ratio IC50 [4]: 0.7 | Ratio IC50 [5]: 42.6

CCCC(=O)N[C@@H](Cc1ccc(O)cc1)C(=O)NCCCNCCCCNCCCN [PHILANTHOTOXIN 343]
IC50 [1]: 7.65 nM | IC50 [2]: 80.2 nM | Ratio IC50 [5]: 10.5

NCCCNCCCCNCCCNC(=O)[C@H](Cc1ccc(O)cc1)NC(=O)C1CCCCC1
IC50 [1]: 0.46 nM | IC50 [2]: 36.6 nM | Ratio IC50 [3]: 16.6 | Ratio IC50 [4]: 2.2 | Ratio IC50 [5]: 79.6

NCCCNCCCCNCCCNC(=O)[C@H](CC1CCCCC1)NC(=O)c1ccc(-c2ccccc2)cc1
IC50 [1]: 2.83 nM | IC50 [2]: 25.8 nM | Ratio IC50 [3]: 2.7 | Ratio IC50 [4]: 3.1 | Ratio IC50 [5]: 9.1

NCCCNCCCCNCCCNC(=O)[C@H](CC1CCCCC1)NC(=O)/C=C/c1ccccc1
IC50 [1]: 0.35 nM | IC50 [2]: 12.1 nM | Ratio IC50 [3]: 21.9 | Ratio IC50 [4]: 6.6 | Ratio IC50 [5]: 34.6

NCCCNCCCCNCCCNC(=O)[C@H](CC1CCCCC1)NC(=O)c1ccccc1
IC50 [1]: 0.37 nM | IC50 [2]: 21.4 nM | Ratio IC50 [3]: 20.7 | Ratio IC50 [4]: 3.7 | Ratio IC50 [5]: 57.8
